Data: ChEMBL document CHEMBL1136884, “Antiplasmodial and antitrypanosomal activity of bicyclic amides and esters of dialkylamino acids” (Bioorg Med Chem, 2009)
The source made the active and inactive calls. The rule behind the calls is not given here.

How the values were obtained:
Plasmodium falciparum = assay: Antimalarial activity against chloroquine and pyrimethamine-resistant Plasmodium falciparum K1 after 48 hrs as [3H]hypoxanthine uptake; assay type: functional, organism-based
[1] = system: Trypanosoma brucei rhodesiense; assay: Antitrypanosomal activity against Trypanosoma brucei rhodesiense after 72 hrs by alamar blue assay; assay type: functional, organism-based
L6 = assay: Cytotoxicity against rat L6 cells after 72 hrs by alamar blue assay; assay type: cell-based; conditions: L6, 72 h
[2] = Selectivity index, ratio of IC50 for rat L6 cells to IC50 for Plasmodium falciparum K1; assay type: toxicity, cell-based; conditions: L6 cells (versus Plasmodium falciparum K1), read-out: Ratio IC50
[3] = Selectivity index, ratio of IC50 for rat L6 cells to IC50 for Trypanosoma brucei rhodesiense; assay type: toxicity, cell-based; conditions: L6 cells (versus Trypanosoma brucei rhodesiense), read-out: Ratio IC50
Plasmodium berghei [4] = assay: Antiplasmodial activity against Plasmodium berghei ANKA infected Fu albino mice (Mus musculus) at 0.01 mL/kg intraperitoneal dose at 24 hrs as parasitaemia per 1000 erythrocytes; assay type: functional
Plasmodium berghei [5] = assay: Antiplasmodial activity as increased MST against Plasmodium berghei ANKA infected Fu albino mice (Mus musculus) at 0.01 mL/kg intraperitoneal dose after 24 hrs; assay type: functional, organism-based

| Compound | IC50 (Plasmodium falciparum) [nM] | IC50 [1] [nM] | IC50 (L6) [µM] | selectivity ratio [2] | selectivity ratio [3] | Activity (Plasmodium berghei [4]) [%] | Activity (Plasmodium berghei [5]) |
| --- | --- | --- | --- | --- | --- | --- | --- |
| CN(C)C12CCNC(C(c3ccccc3)C1)C(c1ccccc1)C2 (centres undefined) | 280 | 600 | 109 | 389 | 181 | – | – |
| CN(C)C12CC(OC(=O)CN3CCCC3)C(C(c3ccccc3)C1)C(c1ccccc1)C2 (centres undefined) | 710 | 210 | 32.7 | 46 | 156 | – | – |
| CCN(CC)CC(=O)OC1CC2(N(C)C)CC(c3ccccc3)C1C(c1ccccc1)C2 (centres undefined) | 2720 | 610 | 30.1 | 11.1 | 49.4 | – | – |
| O=C(CN1CCCC1)OC1CC2(N3CCCCC3)CC(c3ccccc3)C1C(c1ccccc1)C2 (centres undefined) | 470 | 320 | 16.4 | 34.9 | 51.2 | – | – |
| CN(C)C12CC(OC(=O)CN3CCCCC3)C(C(c3ccccc3)C1)C(c1ccccc1)C2 (centres undefined) | 520 | 1990 | 29.3 | 56.3 | 14.7 | – | – |
| O=C(CN1CCCCC1)OC1CC2(N3CCCC3)CC(c3ccccc3)C1C(c1ccccc1)C2 (centres undefined) | 370 | 370 | 14.2 | 38.4 | 38.4 | – | – |
| c1ccc(C2CC3(N4CCCC4)CCNC2C(c2ccccc2)C3)cc1 (centres undefined) | 560 | 1160 | 120 | 215 | 104 | – | – |
| CCN(CC)CC(=O)OC1CC2(N3CCCC3)CC(c3ccccc3)C1C(c1ccccc1)C2 (centres undefined) | 200 | 720 | 49 | 245 | 68.1 | – | – |
| CCN(CC)CC(=O)OC1CC2(N3CCCCC3)CC(c3ccccc3)C1C(c1ccccc1)C2 (centres undefined) | 250 | 560 | 23.9 | 95.7 | 42.7 | – | – |
| O=C(CN1CCCCC1)OC1CC2(N3CCCCC3)CC(c3ccccc3)C1C(c1ccccc1)C2 (centres undefined) | 180 | 870 | 60.4 | 336 | 69.4 | – | – |
| c1ccc(C2CC3(N4CCCCC4)CCNC2C(c2ccccc2)C3)cc1 (centres undefined) | 640 | 6570 | 89.7 | 140 | 13.7 | – | – |
| NC1CC2(N3CCCC3)CC(c3ccccc3)C1C(c1ccccc1)C2 (centres undefined) | 650 | 410 | 38.1 | 58.6 | 92.9 | – | – |
| CN(C)C12CC(N)C(C(c3ccccc3)C1)C(c1ccccc1)C2 (centres undefined) | 610 | 350 | 40.9 | 67 | 117 | – | – |
| NCC(=O)OC1CC2(N3CCCC3)CC(c3ccccc3)C1C(c1ccccc1)C2 (centres undefined) | 700 | 230 | 42.9 | 61.3 | 187 | – | – |
| NC1CC2(N3CCCCC3)CC(c3ccccc3)C1C(c1ccccc1)C2 (centres undefined) | 550 | 270 | 35 | 63.5 | 129 | – | – |
| CN1CCN(CC(=O)NC2CC3(N(C)C)CC(c4ccccc4)C2C(c2ccccc2)C3)CC1 (racemic) | 2580 | 1600 | 66.2 | 25.7 | 41.4 | – | – |
| CN1CCN(CC(=O)NC2CC3(N4CCCC4)CC(c4ccccc4)C2C(c2ccccc2)C3)CC1 (racemic) | 820 | 1130 | 50.2 | 61.3 | 44.5 | – | – |

| Compound | IC50 (Plasmodium falciparum) [nM] | IC50 [1] [nM] | IC50 (L6) [µM] | selectivity ratio [2] | selectivity ratio [3] | Activity (Plasmodium berghei [4]) [%] | Activity (Plasmodium berghei [5]) |
| --- | --- | --- | --- | --- | --- | --- | --- |
| CN1CCN(CC(=O)OC2CC3(N4CCCC4)CC(c4ccccc4)C2C(c2ccccc2)C3)CC1 (racemic) | 540 | 140 | 24.6 | 45.5 | 176 | – | – |
| CN1CCN(CC(=O)OC2CC3(N4CCCCC4)CC(c4ccccc4)C2C(c2ccccc2)C3)CC1 (racemic) | 106 | 870 | 29.5 | 278 | 33.9 | 15 | inactive |
| CN1CCN(CCC(=O)N2CCC3(N4CCCC4)CC(c4ccccc4)C2C(c2ccccc2)C3)CC1 (racemic) | 900 | 31900 | 75.4 | 83.8 | 2.36 | – | – |
| CN1CCN(CC(=O)N2CCC3(N4CCCC4)CC(c4ccccc4)C2C(c2ccccc2)C3)CC1 (racemic) | 830 | 41100 | 69.1 | 83.2 | 1.68 | – | – |
| CN1CCN(CC(=O)N2CCC3(N4CCCCC4)CC(c4ccccc4)C2C(c2ccccc2)C3)CC1 (racemic) | 620 | 92000 | 177 | 286 | 1.93 | – | – |
| CN1CCN(CC(=O)N2CCC3(N(C)C)CC(c4ccccc4)C2C(c2ccccc2)C3)CC1 (racemic) | 2370 | 45800 | 195 | 82.4 | 4.27 | – | – |
| CN1CCN(CCC(=O)N2CCC3(N4CCCCC4)CC(c4ccccc4)C2C(c2ccccc2)C3)CC1 (racemic) | 600 | 30800 | 120 | 200 | 3.89 | – | – |
| CN1CCN(CCC(=O)NC2CC3(N4CCCCC4)CC(c4ccccc4)C2C(c2ccccc2)C3)CC1 (racemic) | 280 | 860 | 61.1 | 218 | 71 | – | – |
| CN1CCN(CC(=O)OC2CC3(N(C)C)CC(c4ccccc4)C2C(c2ccccc2)C3)CC1 (racemic) | 350 | 130 | 39.9 | 114 | 307 | – | – |
| CN1CCN(CC(=O)NC2CC3(N4CCCCC4)CC(c4ccccc4)C2C(c2ccccc2)C3)CC1 (racemic) | 380 | 690 | 57.5 | 151 | 83.4 | – | – |
| CN1CCN(CCC(=O)NC2CC3(N4CCCC4)CC(c4ccccc4)C2C(c2ccccc2)C3)CC1 (racemic) | 2080 | 4150 | 86.7 | 41.7 | 20.9 | – | – |
| CN1CCN(CCC(=O)NC2CC3(N(C)C)CC(c4ccccc4)C2C(c2ccccc2)C3)CC1 (racemic) | 4190 | 2740 | 95 | 22.7 | 34.7 | – | – |
| CN1CCN(CCC(=O)N2CCC3(N(C)C)CC(c4ccccc4)C2C(c2ccccc2)C3)CC1 (racemic) | 1740 | 28200 | 128 | 73.5 | 4.52 | – | – |
| C[C@@H]1CC[C@H]2[C@@H](C)C(=O)O[C@@H]3O[C@@]4(C)CC[C@@H]1[C@]32OO4 [ARTEMISININ] | 6.4 | – | 450 | 70400 | – | – | – |
| CCN(CC)CCCC(C)Nc1ccnc2cc(Cl)ccc12 (centres undefined) [CHLOROQUINE] | – | – | 188 | – | – | – | – |
| Nc1nc(N)nc(Nc2ccc([As]3SCC(CO)S3)cc2)n1 (centres undefined) [MELARSOPROL] | – | 3.9 | 7.78 | – | 2000 | – | – |
